Assay results taken from ChEMBL document CHEMBL3751790, “Novel hydroxyamides and amides containing D-glucopyranose or D-fructose units: Biological assays in MCF-7 and MDST8 cell lines” (Bioorg Med Chem Lett, 2016).
Calls of active or inactive are those of the source. The calls are words filed in the database; no cut-off is given here.

Columns and labels:
[1] = test system: MCF7; test: Cytotoxicity against human MCF7 cells after 72 hrs by CCK8 assay; type: functional, cell-based
[2] = Cytotoxicity against human MDST8 cells after 72 hrs by CCK8 assay; type: functional, cell-based
[3] = test system: MCF7; test: Cytotoxicity against human MCF7 cells at 1 x 10^-5 M after 72 hrs by CCK8 assay; type: functional; settings: for inhibition at 10 µM: MCF7, 72 h
[4] = test system: MDST8; test: (§1) Cytotoxicity against human MDST8 cells at 1 x 10^-5 M after 72 hrs by CCK8 assay; type: functional
[5] = as §1; type: functional; settings: MDST8, 72 h
[6] = Cytotoxicity against human MDST8 cells at 1 x 10^-8 M after 72 hrs by CCK8 assay; type: functional; settings: MDST8, 72 h
[7] = Homo sapiens, MCF7, 72 h, read-out: IC50
[8] = Homo sapiens, MDST8, 72 h, read-out: IC50

With CC(=O)O[C@@H]1O[C@H](C(=O)N[C@H](CO)Cc2ccccc2)[C@@H](OC(C)=O)[C@H](OC(C)=O)[C@H]1OC(C)=O the IC50 ([1]; mcf7) was “Not Active” and the IC50 ([2]; mdst8) was “Not Active”.

With O=C(Nc1ccncc1)[C@H]1O[C@@H](O)[C@H](O)[C@@H](O)[C@@H]1O the IC50 [1, 7] was 190 nM.

In the case of O=C(N[C@H](CO)Cc1ccccc1)[C@H]1OC(O)(CO)[C@@H](O)[C@@H]1O (single isomer, unassigned), the IC50 ([1]; mcf7) is reported as “Not Active” and the IC50 ([2]; mdst8) is reported as “Not Active”.

For CC(=O)O[C@@H]1O[C@H](C(=O)N[C@H](CO)c2ccccc2)[C@@H](OC(C)=O)[C@H](OC(C)=O)[C@H]1OC(C)=O, the IC50 ([1]; mcf7) was “Not Active” and the IC50 ([2]; mdst8) was “Not Active”.

For O=C(NCCCO)[C@H]1O[C@](O)(CO)[C@@H](O)[C@@H]1O, the IC50 ([1]; mcf7) was “Active”, the IC50 ([2]; mdst8) was “Not Active” and the inhibition at 10 µM [3] was greater than 60%.

For CC(=O)O[C@@H]1O[C@H](C(=O)N[C@H](CO)C(C)C)[C@@H](OC(C)=O)[C@H](OC(C)=O)[C@H]1OC(C)=O, the inhibition [4] was “Active”.

In the case of O=C(NCCO)[C@H]1O[C@](O)(CO)[C@@H](O)[C@@H]1O, the IC50 ([1]; mcf7) is reported as “Active”, the IC50 ([2]; mdst8) is reported as “Not Active” and the inhibition at 10 µM [3] is reported as greater than 60%.

With CC(=O)O[C@@H]1O[C@H](C(=O)NCCCBr)[C@@H](OC(C)=O)[C@H](OC(C)=O)[C@H]1OC(C)=O the IC50 ([1]; mcf7) was “Not Active”, the IC50 [2, 8] was 100 nM and the inhibition at 10 µM [5] was greater than 90%. The inhibition at 0.01 µM [6] was 50%.

Work on CC(=O)O[C@@H]1O[C@H](C(=O)N2CCCC2)[C@@H](OC(C)=O)[C@H](OC(C)=O)[C@H]1OC(C)=O yielded an IC50 [1, 7] of 1000 nM.

Work on O=c1[nH]cc(F)c(=O)[nH]1 [FLUOROURACIL] yielded an IC50 [1, 7] of 520 nM, an IC50 [2, 8] of 64 nM and an inhibition at 10 µM [5] of 83%. The inhibition at 10 µM [3] was 60%.

In the case of CC(=O)O[C@@H]1O[C@H](C(=O)NCCO)[C@@H](OC(C)=O)[C@H](OC(C)=O)[C@H]1OC(C)=O, the IC50 ([1]; mcf7) is reported as “Active”, the IC50 ([2]; mdst8) is reported as “Not Active” and the inhibition at 10 µM [3] is reported as greater than 60%.

With O=C(N[C@H](CO)c1ccccc1)[C@H]1O[C@](O)(CO)[C@@H](O)[C@@H]1O the IC50 ([1]; mcf7) was “Not Active” and the IC50 ([2]; mdst8) was “Not Active”.

For CC(C)(C)[C@@H](CO)NC(=O)[C@H]1OC(O)(CO)[C@@H](O)[C@@H]1O (single isomer, unassigned), the IC50 ([1]; mcf7) was “Active” and the inhibition [3] was “Active”.

In the case of CC(C)[C@@H](CO)NC(=O)[C@H]1OC(O)(CO)[C@@H](O)[C@@H]1O (single isomer, unassigned), the IC50 ([2]; mdst8) is reported as “Active” and the inhibition at 10 µM [5] is reported as 80%.

In the case of CC(=O)O[C@@H]1O[C@H](C(=O)NCCCO)[C@@H](OC(C)=O)[C@H](OC(C)=O)[C@H]1OC(C)=O, the IC50 ([1]; mcf7) is reported as “Active”, the IC50 ([2]; mdst8) is reported as “Not Active” and the inhibition at 10 µM [3] is reported as greater than 60%.

For CC(=O)O[C@@H]1O[C@H](C(=O)N[C@H]2CN(Cc3ccccc3)C[C@@H]2NC(=O)[C@H]2O[C@@H](OC(C)=O)[C@H](OC(C)=O)[C@@H](OC(C)=O)[C@@H]2OC(C)=O)[C@@H](OC(C)=O)[C@H](OC(C)=O)[C@H]1OC(C)=O, the IC50 [2, 8] was 100 nM.

Molecule C=CCOC(=O)[C@H]1O[C@@H](OC(C)=O)[C@H](OC(C)=O)[C@@H](OC(C)=O)[C@@H]1OC(C)=O has an IC50 [1, 7] of 4500 nM.
